Source: patent publication US20240217978A1 (CHONG KUN DANG PHARMACEUTICAL CORP., priority 2021, published 2024)
pIC50: −log10 of the molar value.

What follows are molecules tested against human adenosine A2a receptor (Homo sapiens (Human), UniProt P29274) (assay: A2a receptor binding affinity, [3H]-NECA radioligand binding test). Conditions: [3H]-NECA 37 nM; membrane from HEK-293 cells transfected with human adenosine A2a receptor.
In short: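 IC50 values (μM) come from displacement of [3H]-NECA, used at 37 nM final, on human A2a receptor membranes from transfected HEK-293 cells. Incubation lasted one hour at room temperature in Tris/MgCl2/EDTA buffer, pH 7.4; filter-bound radioactivity was counted by scintillation.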

Chain of human adenosine A2a receptor (P29274 whole entry): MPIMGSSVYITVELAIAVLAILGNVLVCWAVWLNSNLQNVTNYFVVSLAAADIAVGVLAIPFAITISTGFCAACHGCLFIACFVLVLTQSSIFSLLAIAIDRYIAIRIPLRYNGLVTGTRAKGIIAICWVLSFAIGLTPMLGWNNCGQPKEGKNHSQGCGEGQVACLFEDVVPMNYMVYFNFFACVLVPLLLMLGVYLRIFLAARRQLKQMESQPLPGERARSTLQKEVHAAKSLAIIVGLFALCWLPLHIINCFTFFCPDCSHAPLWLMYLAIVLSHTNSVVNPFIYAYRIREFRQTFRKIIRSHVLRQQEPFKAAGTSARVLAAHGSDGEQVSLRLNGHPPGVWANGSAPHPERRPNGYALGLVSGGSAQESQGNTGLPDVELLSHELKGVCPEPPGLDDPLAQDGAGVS

Compared with CCC(F)(F)CN1CCN(C(=O)[C@@H]2CCCN2c2nc(N)n3nc(-c4ccco4)nc3n2)CC1 [Example 225, (S)-(1-(7-amino-2-(furan-2-yl)-[1,2,4]triazolo[1,5-a][1,3,5]triazin-5-yl)pyrrolidin-2-yl)(4-(2,2-difluorobutyl)piperazin-1-yl)methanone], CCC(F)(F)CN1CCN(C(=O)[C@@H]2CCN2c2nc(N)n3nc(-c4ccco4)nc3n2)CC1 [Example 254, (S)-(1-(7-amino-2-(furan-2-yl)-[1,2,4]triazolo[1,5-a][1,3,5]triazin-5-yl)azetidin-2-yl)(4-(2,2-difluorobutyl)piperazin-1-yl)methanone] is 0.78 log units lower in pIC50: 8.70 for the first, 7.92 for the second. The first is the more potent here.

Nc1nc(N2CCC[C@H]2C(=O)N2CCN(CC(F)(F)C(F)F)CC2)nc2nc(-c3ccco3)nn12 [Example 226, (S)-(1-(7-amino-2-(furan-2-yl)-[1,2,4]triazolo[1,5-a][1,3,5]triazin-5-yl)pyrrolidin-2-yl)(4-(2,2,3,3-tetrafluoropropyl)piperazin-1-yl)methanone] and Nc1nc(N2CCC[C@H]2C(=O)N2CCN(CC(F)(F)C(F)(F)F)CC2)nc2nc(-c3ccco3)nn12 [Example 227, (S)-(1-(7-amino-2-(furan-2-yl)-[1,2,4]triazolo[1,5-a][1,3,5]triazin-5-yl)pyrrolidin-2-yl)(4-(2,2,3,3,3-pentafluoropropyl)piperazin-1-yl)methanone] are within 0.2 log units of each other in pIC50: 8.15 for the first, 8.05 for the second.

Compared with Nc1nc(N2CCC[C@H]2C(=O)N2CCN(CC(F)(F)C(F)(F)C(F)(F)F)CC2)nc2nc(-c3ccco3)nn12 [Example 228, (S)-(1-(7-amino-2-(furan-2-yl)-[1,2,4]triazolo[1,5-a][1,3,5]triazin-5-yl)pyrrolidin-2-yl)(4-(2,2,3,3,4,4,4-heptafluorobutyl)piperazin-1-yl)methanone], Nc1nc(N2CCC[C@H]2C(=O)N2CCN(CCCC(F)(F)F)CC2)nc2nc(-c3ccco3)nn12 [Example 239, (S)-(1-(7-amino-2-(furan-2-yl)-[1,2,4]triazolo[1,5-a][1,3,5]triazin-5-yl)pyrrolidin-2-yl)(4-(4,4,4-trifluorobutyl)piperazin-1-yl) methanone] is 0.48 log units lower in pIC50: 8.70 for the first, 8.22 for the second. The first is the more potent here.

CC(C)(O)CC(=O)N1CCN(C(=O)[C@@H]2CCCN2c2nc(N)n3nc(-c4ccco4)nc3n2)CC1 [Example 229, 1-(4-((7-amino-2-(furan-2-yl)-[1,2,4]triazolo[1,5-a][1,3,5]triazin-5-yl)-L-prolyl)piperazin-1-yl)-3-hydroxy-3-methylbutan-1-one] and Nc1nc(N2CCC[C@H]2C(=O)N2CCN(C(=O)CO)CC2)nc2nc(-c3ccco3)nn12 [Example 237, 1-(4-((7-amino-2-(furan-2-yl)-[1,2,4]triazolo[1,5-a][1,3,5]triazin-5-yl)-L-prolyl)piperazin-1-yl)-2-hydroxyethan-1-one] are within 0.2 log units of each other in pIC50: 7.92 for the first, 8.10 for the second.

Nc1nc(N2CCC[C@H]2C(=O)N2CCN(C(=O)C3CCC(O)CC3)CC2)nc2nc(-c3ccco3)nn12 (stereo partly drawn) [Example 230] and CC(C)(O)CN1CCC(C2CCN(C(=O)[C@@H]3CCCN3c3nc(N)n4nc(-c5ccco5)nc4n3)CC2)CC1 [Example 244, (S)-(1-(7-amino-2-(furan-2-yl)-[1,2,4]triazolo[1,5-a][1,3,5]triazin-5-yl)pyrrolidin-2-yl)(1′-(2-hydroxy-2-methylpropyl)-[4,4′-bipiperidin]-1-yl)methanone] are within 0.2 log units of each other in pIC50: 8.22 for the first, 8.40 for the second.

Compared with Nc1nc(N[C@@H](CO)C(=O)N2CCN(CC(F)(F)F)CC2)nc2nc(-c3ccco3)nn12 [Example 231, (S)-2-((7-amino-2-(furan-2-yl)-[1,2,4]triazolo[1,5-a][1,3,5]triazin-5-yl)amino)-3-hydroxy-1-(4-(2,2,2-trifluoroethyl)piperazin-1-yl)propan-1-one], CC(C)(F)CN1CCN(C(=O)[C@H](CO)Nc2nc(N)n3nc(-c4ccco4)nc3n2)CC1 [Example 232, (S)-2-((7-amino-2-(furan-2-yl)-[1,2,4]triazolo[1,5-a][1,3,5]triazin-5-yl)amino)-1-(4-(2-fluoro-2-methylpropyl)piperazin-1-yl)-3-hydroxypropan-1-one] is 0.90 log units lower in pIC50: 8.30 for the first, 7.40 for the second. The first is the more potent here.

Nc1nc(N[C@@H](CO)C(=O)N2CCN(Cc3ccccc3)CC2)nc2nc(-c3ccco3)nn12 [Example 233, (S)-2-((7-amino-2-(furan-2-yl)-[1,2,4]triazolo[1,5-a][1,3,5]triazin-5-yl)amino)-1-(4-benzylpiperazin-1-yl)-3-hydroxypropan-1-one] and Nc1nc(N[C@@H](CO)C(=O)N2CCN(c3ccccc3)C(=O)C2)nc2nc(-c3ccco3)nn12 [Example 234] are within 0.2 log units of each other in pIC50: 7.85 for the first, 7.92 for the second.

First: Nc1nc(N[C@@H](CO)C(=O)N2CCN(c3ncccn3)CC2)nc2nc(-c3ccco3)nn12 [Example 235, (S)-2-((7-amino-2-(furan-2-yl)-[1,2,4]triazolo[1,5-a][1,3,5]triazin-5-yl)amino)-3-hydroxy-1-(4-(pyrimidin-2-yl)piperazin-1-yl)propan-1-one]
Second: C[C@H](Nc1nc(N)n2nc(-c3ccco3)nc2n1)C(=O)N1CCN(c2ncccn2)CC1 [Example 240, (S)-2-((7-amino-2-(furan-2-yl)-[1,2,4]triazolo[1,5-a][1,3,5]triazin-5-yl)amino)-1-(4-(pyrimidin-2-yl)piperazin-1-yl)propan-1-one]
The pIC50 of the first is 1.52 log units lower: 8.00 for the first, 9.52 for the second.

Nc1nc(N2CCC[C@H]2C(=O)N2CCN(c3ccc(F)cc3)C(=O)C2)nc2nc(-c3ccco3)nn12 [Example 236, 4-((7-amino-2-(furan-2-yl)-[1,2,4]triazolo[1,5-a][1,3,5]triazin-5-yl)-L-prolyl)-1-(4-fluorophenyl)piperazin-2-one] and COCCN1CCN(C(=O)[C@@H]2CCCN2c2nc(N)n3nc(-c4ccco4)nc3n2)CC1=O [Example 246, 4-((7-amino-2-(furan-2-yl)-[1,2,4]triazolo[1,5-a][1,3,5]triazin-5-yl)-L-prolyl)-1-(2-methoxyethyl)piperazin-2-one] are within 0.2 log units of each other in pIC50: 8.70 for the first, 8.52 for the second.

Going from Nc1nc(N2CCC[C@H]2C(=O)N2CCN(CC(F)(F)F)CC2)nc2sc(-c3ccco3)nc12 [Example 238, (S)-(1-(7-amino-2-(furan-2-yl)thiazolo[5,4-d]pyrimidin-5-yl)pyrrolidin-2-yl)(4-(2,2,2-trifluoroethyl)piperazin-1-yl)methanone] to CCCCN1CCN(C(=O)[C@@H]2CCCN2c2nc(N)c3nc(-c4ccc(C)o4)sc3n2)CC1 [Example 243, (S)-(1-(7-amino-2-(5-methylfuran-2-yl)thiazolo[5,4-d]pyrimidin-5-yl)pyrrolidin-2-yl)(4-butylpiperazin-1-yl)methanone], the pIC50 falls from 8.52 to 7.85 (0.67 log units).

First: Nc1nc(N[C@H](C(=O)N2CCN(c3ncccn3)CC2)C2CCOCC2)nc2nc(-c3ccco3)nn12 [Example 241, (S)-2-((7-amino-2-(furan-2-yl)-[1,2,4]triazolo[1,5-a][1,3,5]triazin-5-yl)amino)-1-(4-(pyrimidin-2-yl)piperazin-1-yl)-2-(tetrahydro-2H-pyran-4-yl)ethan-1-one]
Second: Nc1nc(N[C@H](C(=O)N2CCN(c3nccs3)CC2)C2CCOCC2)nc2nc(-c3ccco3)nn12 [Example 249, (S)-2-((7-amino-2-(furan-2-yl)-[1,2,4]triazolo[1,5-a][1,3,5]triazin-5-yl)amino)-2-(tetrahydro-2H-pyran-4-yl)-1-(4-(thiazol-2-yl)piperazin-1-yl)ethan-1-one]
The pIC50 of the first is 0.95 log units higher: 9.00 for the first, 8.05 for the second.

Nc1nc(N2CC[C@H]2C(=O)N2CCN(c3ncccn3)CC2)nc2nc(-c3ccco3)nn12 [Example 242, (S)-(1-(7-amino-2-(furan-2-yl)-[1,2,4]triazolo[1,5-a][1,3,5]triazin-5-yl)azetidin-2-yl)(4-(pyrimidin-2-yl)piperazin-1-yl)methanone] and Nc1nc(N2CC[C@H]2C(=O)N2CCN(CC(F)F)CC2)nc2nc(-c3ccco3)nn12 [Example 252, (S)-(1-(7-amino-2-(furan-2-yl)-[1,2,4]triazolo[1,5-a][1,3,5]triazin-5-yl)azetidin-2-yl)(4-(2,2-difluoroethyl)piperazin-1-yl)methanone] are within 0.2 log units of each other in pIC50: 8.05 for the first, 8.22 for the second.

First: CC(C)(F)CN1CCC(C2CCN(C(=O)[C@@H]3CCCN3c3nc(N)n4nc(-c5ccco5)nc4n3)CC2)CC1 [Example 245, (S)-(1-(7-amino-2-(furan-2-yl)-[1,2,4]triazolo[1,5-a][1,3,5]triazin-5-yl)pyrrolidin-2-yl)(1′-(2-fluoro-2-methylpropyl)-[4,4′-bipiperidin]-1-yl)methanone]
Second: CC(F)(F)CN1CCN(C(=O)[C@@H]2CCN2c2nc(N)n3nc(-c4ccco4)nc3n2)CC1 [Example 253, (S)-(1-(7-amino-2-(furan-2-yl)-[1,2,4]triazolo[1,5-a][1,3,5]triazin-5-yl)azetidin-2-yl)(4-(2,2-difluoropropyl)piperazin-1-yl)methanone]
The pIC50 of the first is 0.33 log units lower: 7.82 for the first, 8.15 for the second. The second is the more potent here.

First: CCCCN1CCN(C(=O)[C@@H]2CCCN2c2nc(N)n3nc(-c4ccco4)nc3n2)CC1=O [Example 247, 4-((7-amino-2-(furan-2-yl)-[1,2,4]triazolo[1,5-a][1,3,5]triazin-5-yl)-L-prolyl)-1-butylpiperazin-2-one]
Second: CC[C@H](Nc1nc(N)n2nc(-c3ccco3)nc2n1)C(=O)N1CCN(c2nccs2)CC1 [Example 248, (S)-2-((7-amino-2-(furan-2-yl)-[1,2,4]triazolo[1,5-a][1,3,5]triazin-5-yl)amino)-1-(4-(thiazol-2-yl)piperazin-1-yl)butan-1-one]
The pIC50 of the first is 0.81 log units higher: 8.70 for the first, 7.89 for the second.

Nc1nc(N[C@H](C(=O)N2CCN(CC(F)(F)F)CC2)C2CCCCC2)nc2nc(-c3nccs3)nn12 [Example 250, (S)-2-((7-amino-2-(thiazol-2-yl)-[1,2,4]triazolo[1,5-a][1,3,5]triazin-5-yl)amino)-2-cyclohexyl-1-(4-(2,2,2-trifluoroethyl)piperazin-1-yl)ethan-1-one] and C[C@H](Nc1nc(N)n2nc(-c3ccco3)nc2n1)C(=O)N1CCN(c2nccs2)CC1 [Example 251, (S)-2-((7-amino-2-(furan-2-yl)-[1,2,4]triazolo[1,5-a][1,3,5]triazin-5-yl)amino)-1-(4-(thiazol-2-yl)piperazin-1-yl)propan-1-one] are within 0.2 log units of each other in pIC50: 8.05 for the first, 7.89 for the second.
